Laboratory results published in the NIST ThermoML archive (doi:10.1021/je900596d).

Conditions: Vibrating tube method

FC(F)=C(F)C(F)(F)F [hexafluoropropene]
Conditions | mass density [kg/m3]
263.41 K, 162.7 kPa, Fluid (supercritical or subcritical phases) | 11.79
263.41 K, 164.3 kPa, Fluid (supercritical or subcritical phases) | 11.92
263.41 K, 165.5 kPa, Fluid (supercritical or subcritical phases) | 12.02
263.41 K, 167 kPa, Fluid (supercritical or subcritical phases) | 12.14
263.41 K, 168.6 kPa, Fluid (supercritical or subcritical phases) | 12.22
263.41 K, 170.1 kPa, Fluid (supercritical or subcritical phases) | 12.35
263.41 K, 171.8 kPa, Fluid (supercritical or subcritical phases) | 12.46
263.41 K, 173.2 kPa, Fluid (supercritical or subcritical phases) | 12.64
263.41 K, 174.8 kPa, Fluid (supercritical or subcritical phases) | 12.73
263.41 K, 176.4 kPa, Fluid (supercritical or subcritical phases) | 12.82
263.41 K, 177.9 kPa, Fluid (supercritical or subcritical phases) | 13
263.41 K, 179.4 kPa, Fluid (supercritical or subcritical phases) | 13.09
263.41 K, 180.9 kPa, Fluid (supercritical or subcritical phases) | 13.22
263.41 K, 182.4 kPa, Fluid (supercritical or subcritical phases) | 13.34
263.41 K, 183.9 kPa, Fluid (supercritical or subcritical phases) | 13.46
263.41 K, 185.4 kPa, Fluid (supercritical or subcritical phases) | 13.58
263.41 K, 186.9 kPa, Fluid (supercritical or subcritical phases) | 13.66
263.41 K, 188.4 kPa, Fluid (supercritical or subcritical phases) | 13.77
263.41 K, 189.9 kPa, Fluid (supercritical or subcritical phases) | 13.87
263.41 K, 191.3 kPa, Fluid (supercritical or subcritical phases) | 14.01
263.41 K, 192.8 kPa, Fluid (supercritical or subcritical phases) | 14.11
263.41 K, 194.2 kPa, Fluid (supercritical or subcritical phases) | 14.27
263.41 K, 195.7 kPa, Fluid (supercritical or subcritical phases) | 14.37
263.41 K, 197.1 kPa, Fluid (supercritical or subcritical phases) | 14.48
263.41 K, 198.5 kPa, Fluid (supercritical or subcritical phases) | 14.63
263.41 K, 199.9 kPa, Fluid (supercritical or subcritical phases) | 14.76
263.41 K, 201.3 kPa, Fluid (supercritical or subcritical phases) | 14.81
263.41 K, 202.7 kPa, Fluid (supercritical or subcritical phases) | 14.96
263.41 K, 204.1 kPa, Fluid (supercritical or subcritical phases) | 15.01
263.41 K, 205.5 kPa, Fluid (supercritical or subcritical phases) | 15.14
263.41 K, 206.9 kPa, Fluid (supercritical or subcritical phases) | 15.26
263.41 K, 208.3 kPa, Fluid (supercritical or subcritical phases) | 15.38
263.41 K, 209.6 kPa, Fluid (supercritical or subcritical phases) | 15.49
263.41 K, 211 kPa, Fluid (supercritical or subcritical phases) | 15.6
263.41 K, 212.3 kPa, Fluid (supercritical or subcritical phases) | 15.71
263.41 K, 213.6 kPa, Fluid (supercritical or subcritical phases) | 15.8
263.41 K, 214.9 kPa, Fluid (supercritical or subcritical phases) | 15.93
263.41 K, 216.3 kPa, Fluid (supercritical or subcritical phases) | 16.03
263.41 K, 217.6 kPa, Fluid (supercritical or subcritical phases) | 16.16
263.41 K, 218.8 kPa, Fluid (supercritical or subcritical phases) | 16.24
263.41 K, 220.2 kPa, Fluid (supercritical or subcritical phases) | 16.31
263.41 K, 220.6 kPa, Fluid (supercritical or subcritical phases) | 16.37
263.41 K, 221.1 kPa, Fluid (supercritical or subcritical phases) | 16.43
263.41 K, 221.5 kPa, Fluid (supercritical or subcritical phases) | 16.47
263.41 K, 222 kPa, Fluid (supercritical or subcritical phases) | 16.48
263.41 K, 222.4 kPa, Fluid (supercritical or subcritical phases) | 16.53
263.41 K, 223.2 kPa, Fluid (supercritical or subcritical phases) | 16.59
263.41 K, 223.6 kPa, Fluid (supercritical or subcritical phases) | 16.63
263.41 K, 224 kPa, Fluid (supercritical or subcritical phases) | 16.66
263.41 K, 224.4 kPa, Fluid (supercritical or subcritical phases) | 16.7
263.41 K, 225.4 kPa, Fluid (supercritical or subcritical phases) | 16.76
263.41 K, 226.2 kPa, Fluid (supercritical or subcritical phases) | 16.85
263.41 K, 226.6 kPa, Fluid (supercritical or subcritical phases) | 16.88
263.41 K, 227 kPa, Fluid (supercritical or subcritical phases) | 16.94
263.41 K, 227.9 kPa, Fluid (supercritical or subcritical phases) | 16.98
263.41 K, 228.6 kPa, Fluid (supercritical or subcritical phases) | 17.03
263.41 K, 229 kPa, Fluid (supercritical or subcritical phases) | 17.07
263.41 K, 229.9 kPa, Fluid (supercritical or subcritical phases) | 17.2
263.41 K, 230.7 kPa, Fluid (supercritical or subcritical phases) | 17.24
263.41 K, 231.4 kPa, Fluid (supercritical or subcritical phases) | 17.29
263.41 K, 231.9 kPa, Fluid (supercritical or subcritical phases) | 17.35
263.41 K, 232.6 kPa, Fluid (supercritical or subcritical phases) | 17.43
263.41 K, 233 kPa, Fluid (supercritical or subcritical phases) | 17.48
263.41 K, 233.4 kPa, Fluid (supercritical or subcritical phases) | 17.55
263.41 K, 234.2 kPa, Fluid (supercritical or subcritical phases) | 17.65
263.41 K, 234.9 kPa, Fluid (supercritical or subcritical phases) | 17.92
263.41 K, 235.5 kPa, Fluid (supercritical or subcritical phases) | 18.45
263.41 K, 236 kPa, Fluid (supercritical or subcritical phases) | 19
263.49 K, 230.2 kPa, Liquid | 1462.58
263.49 K, 230.4 kPa, Liquid | 1462.56
263.49 K, 231 kPa, Liquid | 1462.62
263.49 K, 231.9 kPa, Liquid | 1462.66
263.49 K, 232.1 kPa, Liquid | 1462.66
263.49 K, 235.3 kPa, Liquid | 1462.67
263.49 K, 242.7 kPa, Liquid | 1462.66
263.49 K, 244.5 kPa, Liquid | 1462.72
263.49 K, 250.6 kPa, Liquid | 1462.76
263.49 K, 257.4 kPa, Liquid | 1462.73
263.49 K, 258.3 kPa, Liquid | 1462.79
263.49 K, 263.2 kPa, Liquid | 1462.89
263.49 K, 273.9 kPa, Liquid | 1462.91
263.49 K, 279.5 kPa, Liquid | 1462.96
263.49 K, 288.7 kPa, Liquid | 1462.98
263.49 K, 322.8 kPa, Liquid | 1463.12
263.49 K, 327.2 kPa, Liquid | 1463.13
263.49 K, 333.9 kPa, Liquid | 1463.18
263.49 K, 337.8 kPa, Liquid | 1463.15
263.49 K, 341.2 kPa, Liquid | 1463.16
263.49 K, 345.9 kPa, Liquid | 1463.25
263.49 K, 354.4 kPa, Liquid | 1463.25
263.49 K, 361.4 kPa, Liquid | 1463.34
263.49 K, 370.3 kPa, Liquid | 1463.38
263.49 K, 388 kPa, Liquid | 1463.45
263.49 K, 390.4 kPa, Liquid | 1463.48
263.49 K, 401.9 kPa, Liquid | 1463.54
263.49 K, 413.3 kPa, Liquid | 1463.57
263.49 K, 431.1 kPa, Liquid | 1463.65
263.49 K, 433.8 kPa, Liquid | 1463.67
263.49 K, 447.7 kPa, Liquid | 1463.79
263.49 K, 467.1 kPa, Liquid | 1463.9
263.49 K, 484.1 kPa, Liquid | 1463.94
263.49 K, 491.3 kPa, Liquid | 1463.96
263.49 K, 502.2 kPa, Liquid | 1464.1
263.49 K, 506.6 kPa, Liquid | 1464.15
263.49 K, 518.2 kPa, Liquid | 1464.18
263.49 K, 527.6 kPa, Liquid | 1464.19
263.49 K, 529.9 kPa, Liquid | 1464.3
263.49 K, 550.9 kPa, Liquid | 1464.3
263.49 K, 554.1 kPa, Liquid | 1464.39
263.49 K, 574.4 kPa, Liquid | 1464.38
263.49 K, 584.9 kPa, Liquid | 1464.43
263.49 K, 596.2 kPa, Liquid | 1464.57
263.49 K, 625.2 kPa, Liquid | 1464.59
263.49 K, 652.6 kPa, Liquid | 1464.81
263.49 K, 673 kPa, Liquid | 1464.96
263.49 K, 705.5 kPa, Liquid | 1465.02
263.49 K, 728.3 kPa, Liquid | 1465.2
263.49 K, 751.2 kPa, Liquid | 1465.25
263.49 K, 772.1 kPa, Liquid | 1465.47
263.49 K, 792.6 kPa, Liquid | 1465.54
263.49 K, 813.9 kPa, Liquid | 1465.54
263.49 K, 853.1 kPa, Liquid | 1465.89
263.49 K, 888.3 kPa, Liquid | 1465.94
263.49 K, 912.8 kPa, Liquid | 1466.07
263.49 K, 939.3 kPa, Liquid | 1466.24
263.49 K, 962.1 kPa, Liquid | 1466.39
263.49 K, 982.9 kPa, Liquid | 1466.54
263.49 K, 1031 kPa, Liquid | 1466.76
263.49 K, 1064.1 kPa, Liquid | 1466.9
263.49 K, 1098.2 kPa, Liquid | 1467.05
263.49 K, 1132.8 kPa, Liquid | 1467.28
263.49 K, 1165.8 kPa, Liquid | 1467.41
263.49 K, 1201.1 kPa, Liquid | 1467.57
263.49 K, 1250.1 kPa, Liquid | 1467.92
